Results as given in US11078216B2, “Bisaryl amides as NRF2 activators” (GLAXOSMITHKLINE INTELLECTUAL PROPERTY DEVELOPMENT LIMITED, priority 2016, dated 2021).

System: NRF2 (NQO1 activity as marker for NRF2 activation), BEAS-2B cells
Assay: BEAS-2B NQO1 MTT Assay
Type: cell-based
Conditions: Homo sapiens, EC50 of NQO1 specific activity induction, 48 hours incubation, read-out: EC50
Source text: NAD(P)H:quinone oxidoreductase 1 (NQO1), also called DT diaphorase, is a homodimeric FAD-containing enzyme that catalyzes obligatory NAD(P)H-dependent two-electron reductions of quinones and protects cells against the toxic and neoplastic effects of free radicals and reactive oxygen species arising from one-electron reductions. The transcription of NQO1 is finely regulated by NRF2, and thus NQO1 activity is a good marker for NRF2 activation. On day one, frozen BEAS-2B cells (ATCC) are thawed in a water bath, counted, and re-suspended at a concentration of 250,000 cells/mL. Fifty microliters of cells are plated in 384 well black clear-bottomed plates. Plates are incubated at 37° C., 5% CO2 overnight. On day two, plates are centrifuged and 50 nL of compound or controls are added to the cells. Plates are then incubated at 37° C., 5% CO2 for 48 hours. On day four, medium is aspirated from the plate and crude cell lysates are made by adding 13 uL of 1× Cell Signaling Technologies lysis buffer with 1 Complete, Mini, EDTA-free Protease Inhibitor Tablet (Roche) for each 10 mL of lysis buffer. After lysis plates are incubated for 20 minutes at room temperature. Two microliters of lysate are removed for use in Cell Titer Glo assay (Promega) and MTT cocktail is prepared (Prochaska et. al. 1998) for measurement of NQO1 activity. Fifty microliters of MTT cocktail is added to each well, plate is centrifuged, and analyzed on an Envision plate reader (Perkin Elmer) using Absorbance 570 nm label for 30 minutes. Product formation is measured kinetically and the EC50 of NQO1 specific activity induction is calculated by plotting the change in absorbance (Delta OD/min) versus the log of compound concentration followed by 3-parameter fitting.
EC50s<1 nM (+++++), EC50s 1 nM-10 nM (++++), EC50s 10 nM-100 nM (+++), EC50s 100 nM-1 uM (++), EC50s 1-10 uM (+), EC50s>10 uM (−), or were not determined (ND).

Structure (SMILES)	EC50
CC[C@@H]1CN(Cc2cc([C@H](CC(=O)NCc3nccn3C)c3ccc4c(nnn4CC)c3C)ccc2C)S(=O)(=O)c2cccnc2O1 [Example 16, (S)-3-(3-(((R)-4-Ethyl-1,1-dioxido-3,4-dihydro-2H-pyrido[2,3-b][1,4,5]oxathiazepin-2-yl)methyl)-4-methylphenyl)-3-(1-ethyl-4-methyl-1H-benzo[d][1,2,3]triazol-5-yl)-N-((1-methyl-1H-imidazol-2-yl)methyl)propanamide]	1 to 10 µM
CC[C@@H]1CN(Cc2cc([C@H](CC(=O)Nc3nccn3C)c3ccc4c(nnn4CC)c3C)ccc2C)S(=O)(=O)c2cccnc2O1 [Example 17, (S)-3-(3-(((R)-4-Ethyl-1,1-dioxido-3,4-dihydro-2H-pyrido[2,3-b][1,4,5]oxathiazepin-2-yl)methyl)-4-methylphenyl)-3-(1-ethyl-4-methyl-1H-benzo[d][1,2,3]triazol-5-yl)-N-(1-methyl-1H-imidazol-2-yl)propanamide]	0.1 to 1 µM
CC[C@@H]1CN(Cc2cc([C@H](CC(=O)Nc3cncc4ccccc34)c3ccc4c(nnn4CC)c3C)ccc2C)S(=O)(=O)c2cccnc2O1 [Example 18, (S)-3-(3-(((R)-4-Ethyl-1,1-dioxido-3,4-dihydro-2H-pyrido[2,3-d][1,4,5]oxathiazepin-2-yl)methyl)-4-methylphenyl)-3-(1-ethyl-4-methyl-1H-benzo[d][1,2,3]triazol-5-yl)-N-(isoquinolin-4-yl)propanamide]	0.01 to 0.1 µM
CC[C@@H]1CN(Cc2cc([C@H](CC(=O)Nc3ccncc3)c3ccc4c(nnn4CC)c3C)ccc2C)S(=O)(=O)c2cccnc2O1 [Example 19, (S)-3-(3-(((R)-4-Ethyl-1,1-dioxido-3,4-dihydro-2H-pyrido[2,3-b][1,4,5]oxathiazepin-2-yl)methyl)-4-methylphenyl)-3-(1-ethyl-4-methyl-1H-benzo[d][1,2,3]triazol-5-yl)-N-(pyridin-4-yl)propanamide]	0.1 to 1 µM
CC[C@@H]1CN(Cc2cc([C@@H](c3ccc4c(nnn4CC)c3C)[C@@H](C)C(=O)N3C(=O)OC[C@H]3Cc3ccccc3)ccc2C)S(=O)(=O)c2cccnc2O1 [Example 20, (R)-4-Benzyl-3-((2R,3S)-3-(3-(((R)-4-ethyl-1,1-dioxido-3,4-dihydro-2H-pyrido[2,3-b][1,4,5]oxathiazepin-2-yl)methyl)-4-methylphenyl)-3-(1-ethyl-4-methyl-1H-benzo[d][1,2,3]triazol-5-yl)-2-methylpropanoyl)oxazolidin-2-one]	0.1 to 1 µM
CC[C@@H]1CN(Cc2cc([C@H](CC(=O)NCCC(=O)N(C)C)c3ccc4c(nnn4CC)c3C)ccc2C)S(=O)(=O)c2cccnc2O1 [Example 21, (S)—N-(3-(Dimethylamino)-3-oxopropyl)-3-(3-(((R)-4-ethyl-1,1-dioxido-3,4-dihydro-2H-pyrido[2,3-b][1,4,5]oxathiazepin-2-yl)methyl)-4-methylphenyl)-3-(1-ethyl-4-methyl-1H-benzo[d][1,2,3]triazol-5-yl)propanamide]	1 to 10 µM
CC[C@@H]1CN(Cc2cc([C@H](CC(=O)NC3CCOC3)c3ccc4c(nnn4CC)c3C)ccc2C)S(=O)(=O)c2cccnc2O1 (stereo partly drawn) [Example 22, (3S)-3-(3-(((R)-4-Ethyl-1,1-dioxido-3,4-dihydro-2H-pyrido[2,3-b][1,4,5]oxathiazepin-2-yl)methyl)-4-methylphenyl)-3-(1-ethyl-4-methyl-1H-benzo[d][1,2,3]triazol-5-yl)-N-(tetrahydrofuran-3-yl)propanamide]	0.1 to 1 µM
CC[C@@H]1CN(Cc2cc([C@H](CC(=O)NC(C)(C)C(N)=O)c3ccc4c(nnn4CC)c3C)ccc2C)S(=O)(=O)c2cccnc2O1 [Example 23, (S)-N-(1-Amino-2-methyl-1-oxopropan-2-yl)-3-(3-(((R)-4-ethyl-1,1-dioxido-3,4-dihydro-2H-pyrido[2,3-b][1,4,5]oxathiazepin-2-yl)methyl)-4-methylphenyl)-3-(1-ethyl-4-methyl-1H-benzo[d][1,2,3]triazol-5-yl)propanamide]	1 to 10 µM
CC[C@@H]1CN(Cc2cc([C@H](CC(=O)NC3CN(C)C3)c3ccc4c(nnn4CC)c3C)ccc2C)S(=O)(=O)c2cccnc2O1 [Example 24, (S)-3-(3-(((R)-4-Ethyl-1,1-dioxido-3,4-dihydro-2H-pyrido[2,3-b][1,4,5]oxathiazepin-2-yl)methyl)-4-methylphenyl)-3-(1-ethyl-4-methyl-1H-benzo[d][1,2,3]triazol-5-yl)-N-(1-methylazetidin-3-yl)propanamide]	1 to 10 µM
CC[C@@H]1CN(Cc2cc([C@H](CC(=O)NC3CCCOC3)c3ccc4c(nnn4CC)c3C)ccc2C)S(=O)(=O)c2cccnc2O1 (stereo partly drawn) [Example 25, (3S)-3-(3-(((R)-4-Ethyl-1,1-dioxido-3,4-dihydro-2H-pyrido[2,3-b][1,4,5]oxathiazepin-2-yl)methyl)-4-methylphenyl)-3-(1-ethyl-4-methyl-1H-benzo[d][1,2,3]triazol-5-yl)-N-(tetrahydro-2H-pyran-3-yl)propanamide]	0.1 to 1 µM
CC[C@@H]1CN(Cc2cc([C@H](CC(=O)NCC3CCOC3)c3ccc4c(nnn4CC)c3C)ccc2C)S(=O)(=O)c2cccnc2O1 (stereo partly drawn) [Example 26, (3S)-3-(3-(((R)-4-Ethyl-1,1-dioxido-3,4-dihydro-2H-pyrido[2,3-b][1,4,5]oxathiazepin-2-yl)methyl)-4-methylphenyl)-3-(1-ethyl-4-methyl-1H-benzo[d][1,2,3]triazol-5-yl)-N-((tetrahydrofuran-3-yl)methyl)propanamide]	0.1 to 1 µM
CC[C@@H]1CN(Cc2cc([C@H](CC(=O)NCC(C)(C)O)c3ccc4c(nnn4CC)c3C)ccc2C)S(=O)(=O)c2cccnc2O1 [Example 27, (S)-3-(3-(((R)-4-Ethyl-1,1-dioxido-3,4-dihydro-2H-pyrido[2,3-b][1,4,5]oxathiazepin-2-yl)methyl)-4-methylphenyl)-3-(1-ethyl-4-methyl-1H-benzo[d][1,2,3]triazol-5-yl)-N-(2-hydroxy-2-methylpropyl)propanamide]	1 to 10 µM
CC[C@@H]1CN(Cc2cc([C@H](CC(=O)NC(C)C(=O)NC)c3ccc4c(nnn4CC)c3C)ccc2C)S(=O)(=O)c2cccnc2O1 (stereo partly drawn) [Example 28, (3S)-3-(3-(((R)-4-Ethyl-1,1-dioxido-3,4-dihydro-2H-pyrido[2,3-b][1,4,5]oxathiazepin-2-yl)methyl)-4-methylphenyl)-3-(1-ethyl-4-methyl-1H-benzo[d][1,2,3]triazol-5-yl)-N-(1-(methylamino)-1-oxopropan-2-yl)propanamide]	1 to 10 µM
CC[C@@H]1CN(Cc2cc([C@H](CC(=O)NC3CCCNC3=O)c3ccc4c(nnn4CC)c3C)ccc2C)S(=O)(=O)c2cccnc2O1 (stereo partly drawn) [Example 29, (3S)-3-(3-(((R)-4-Ethyl-1,1-dioxido-3,4-dihydro-2H-pyrido[2,3-b][1,4,5]oxathiazepin-2-yl)methyl)-4-methylphenyl)-3-(1-ethyl-4-methyl-1H-benzo[d][1,2,3]triazol-5-yl)-N-(2-oxopiperidin-3-yl)propanamide]	1 to 10 µM
CC[C@@H]1CN(Cc2cc([C@H](CC(=O)NCCS(N)(=O)=O)c3ccc4c(nnn4CC)c3C)ccc2C)S(=O)(=O)c2cccnc2O1 [Example 30, (S)-3-(3-(((R)-4-Ethyl-1,1-dioxido-3,4-dihydro-2H-pyrido[2,3-b][1,4,5]oxathiazepin-2-yl)methyl)-4-methylphenyl)-3-(1-ethyl-4-methyl-1H-benzo[d][1,2,3]triazol-5-yl)-N-(2-sulfamoylethyl)propanamide]	0.1 to 1 µM
